For orientation: EC50 means the concentration at which the effect is half-maximal.

This is an account of results in US10829473B2, “Modulators of the cystic fibrosis transmembrane conductance regulator protein and methods of use” (AbbVie Overseas S.Á.R.L., priority 2017, dated 2020).

Read-outs that look alike come from different tables or passages of the source. Marks after values point to notes of the source that are not given here. A value given as a limit tells only on which side of the number the result lay.

This assay concerns the target T1, F508delCFTR (Homo sapiens, UniProt P13569, DEL508-508).
T1 construct: expressed in transfected cells; host or cells: CFBE41o- human lung derived epithelial cells (CFBE41o-F508delCFTR-HRP), doxycycline-inducible
In words: Cell Surface Expression-Horse Radish Peroxidase (CSE-HRP) Assay.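 As to EC50 (with co-corrector): co-corrector chromenyl benzoic acid corrector at 2 or 3 µM.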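 As to Maximum % activity (without co-corrector): % of on-plate positive control chromenyl benzoic acid corrector at 2 or 3 µM.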 It counts as cell-based. The following applies: for Maximum % activity (with co-corrector) / Emax: maximum at any tested concentration; for Emax: read-out: Maximum % activity (without co-corrector). The procedure, abridged: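 Corrector compounds were given as 8-point 3-fold series from 20 or 30 μM, with or without a 2 μM co-corrector, for 18-24 h at 33 °C. Surface HRP was read by luminol luminescence as % of positive control; variable-Hill-slope sigmoidal fitting gave EC50 from triplicate plates.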

[1] abbreviates: test compound alone, without co-corrector, read-out: EC50 (without co-corrector).
Setting [2] is: with co-corrector, read-out: EC50 (with co-corrector).
[3] abbreviates: test compound with co-corrector.
[4] abbreviates: test compound with co-corrector, read-out: EC50 (with co-corrector).
The mark [5] stands for this setting: test compound without co-corrector.
Setting [6] is: test compound without co-corrector, read-out: EC50 (without co-corrector).

T1 sequence (P13569 with tags, fused parts or gaps DEL508-508): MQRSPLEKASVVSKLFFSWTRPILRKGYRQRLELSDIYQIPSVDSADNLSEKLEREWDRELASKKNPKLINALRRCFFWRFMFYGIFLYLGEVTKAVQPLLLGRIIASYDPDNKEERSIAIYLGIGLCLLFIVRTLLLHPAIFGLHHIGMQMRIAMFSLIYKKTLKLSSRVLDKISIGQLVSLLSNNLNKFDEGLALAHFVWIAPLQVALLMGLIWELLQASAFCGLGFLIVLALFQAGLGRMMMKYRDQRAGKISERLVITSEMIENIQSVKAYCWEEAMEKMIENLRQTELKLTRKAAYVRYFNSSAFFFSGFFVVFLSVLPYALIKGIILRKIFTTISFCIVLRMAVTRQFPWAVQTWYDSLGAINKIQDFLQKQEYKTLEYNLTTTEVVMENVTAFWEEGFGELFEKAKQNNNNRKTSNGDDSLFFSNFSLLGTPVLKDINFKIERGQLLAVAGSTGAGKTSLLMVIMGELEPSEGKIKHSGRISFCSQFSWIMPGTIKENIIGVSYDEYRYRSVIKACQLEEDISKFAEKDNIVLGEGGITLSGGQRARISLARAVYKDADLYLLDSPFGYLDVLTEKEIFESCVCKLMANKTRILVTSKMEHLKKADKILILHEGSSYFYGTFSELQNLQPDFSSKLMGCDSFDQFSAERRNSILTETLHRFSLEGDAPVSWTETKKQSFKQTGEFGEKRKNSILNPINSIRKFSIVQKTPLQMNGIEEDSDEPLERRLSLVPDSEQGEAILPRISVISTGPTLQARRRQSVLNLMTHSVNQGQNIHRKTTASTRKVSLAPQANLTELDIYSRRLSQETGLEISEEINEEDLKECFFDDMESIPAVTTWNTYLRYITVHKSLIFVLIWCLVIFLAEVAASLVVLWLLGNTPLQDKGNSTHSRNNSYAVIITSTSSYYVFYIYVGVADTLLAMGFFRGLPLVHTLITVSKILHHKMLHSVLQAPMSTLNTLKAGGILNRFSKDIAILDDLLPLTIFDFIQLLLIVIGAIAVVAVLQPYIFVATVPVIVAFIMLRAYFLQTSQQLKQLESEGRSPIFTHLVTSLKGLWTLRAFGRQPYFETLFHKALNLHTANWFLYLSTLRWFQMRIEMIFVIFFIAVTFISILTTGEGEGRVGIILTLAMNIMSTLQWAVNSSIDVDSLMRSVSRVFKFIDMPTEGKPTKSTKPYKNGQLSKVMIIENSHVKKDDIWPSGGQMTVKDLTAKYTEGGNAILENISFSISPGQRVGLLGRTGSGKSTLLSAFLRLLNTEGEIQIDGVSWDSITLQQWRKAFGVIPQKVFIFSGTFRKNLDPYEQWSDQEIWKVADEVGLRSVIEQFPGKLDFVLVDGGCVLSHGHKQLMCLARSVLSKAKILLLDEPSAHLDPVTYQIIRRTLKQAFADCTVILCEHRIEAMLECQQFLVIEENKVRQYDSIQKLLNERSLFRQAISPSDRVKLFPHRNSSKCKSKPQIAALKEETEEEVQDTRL

For `O=C(NS(=O)(=O)c1ccccc1)C1(c2ccccc2)CC1` [Example III-6, N-(benzenesulfonyl)-1-phenylcyclopropane-1-carboxamide], the EC50 was above 10 µM under setting [1] and 3 to 10 µM under setting [2]. For the same compound, the “Maximum % activity (with co-corrector)” value (with co-corrector) was “++ (≥150 and <350)”. Also, the Emax (without co-corrector) was below 50%.
Take `CCOc1ncc(C2CCC2)cc1C1(C(=O)NS(=O)(=O)c2cccc3nc(C)ccc23)CC1` [Example GI-115, 1-(5-cyclobutyl-2-ethoxypyridin-3-yl)-N-(2-methylquinoline-5-sulfonyl)cyclopropane-1-carboxamide]: the “Maximum % activity (with co-corrector)” value under setting [3] is given as “+++ (≥350)”. The EC50 is below 3 µM under setting [4] and below 3 µM under setting [6]. For the same compound, the Emax under setting [5] was above 150%.
In the case of `Cc1ccc(C)c(C2(C(=O)NS(=O)(=O)c3cccc4[nH]ncc34)CC2)c1` [Example III-127, 1-(2,5-dimethylphenyl)-N-(1H-indazole-4-sulfonyl)cyclopropane-1-carboxamide], the EC50 under setting [1] is 3 to 10 µM and the EC50 under setting [2] was below 3 µM. For the same compound, for the setting “with co-corrector”, the “Maximum % activity (with co-corrector)” value is given as “+++ (≥350)”. Moreover, the Emax (without co-corrector) is above 150%.
On the same counts, the results for `Cc1ccc(OC(C)C)c(C2(C(=O)NS(=O)(=O)c3cccc4[nH]ccc34)CC2)c1` [II-79] are below 3 µM, below 3 µM, “+++ (≥350)” and above 150%.
`O=C(NS(=O)(=O)c1cccc2ccccc12)C1(c2ccc(C(F)(F)F)nc2Cl)CC1` [GIII-21]: under setting [3], the “EC50 (with co-corrector)” value is on record as “++^a”; the “Maximum % activity (with co-corrector)” value was “++ (≥150 and <350)”. Besides, under setting [5], the “EC50 (without co-corrector)” value is “++^a” and the Emax was in the range of 50 to 150%.
As for `CCc1cnc(N2CCCC2)c(C2(C(=O)NS(=O)(=O)c3cccc4[nH]ccc34)CC2)c1` [Example GI-37, 1-[5-ethyl-2-(pyrrolidin-1-yl)pyridin-3-yl]-N-(1H-indole-4-sulfonyl)cyclopropane-1-carboxamide], the “Maximum % activity (with co-corrector)” value under setting [3] is given as “+++ (≥350)”. In addition, the EC50 is below 3 µM under setting [4] and 3 to 10 µM under setting [6]. Further, the Emax under setting [5] was above 150%.
Take `COc1ccc(C#N)cc1C1(C(=O)NS(=O)(=O)c2cccc3c2CCCN3)CC1` [Example III-100, 1-(5-cyano-2-methoxyphenyl)-N-(1,2,3,4-tetrahydroquinoline-5-sulfonyl)cyclopropane-1-carboxamide]: the EC50 under setting [1] is 3 to 10 µM and the EC50 under setting [2] is 3 to 10 µM. Moreover, the “Maximum % activity (with co-corrector)” value (with co-corrector) was “+++ (≥350)”. Further, for the setting “without co-corrector”, the Emax is above 150%.
For `COCC(C)(C)c1ccc(OC)c(C2(C(=O)NS(=O)(=O)c3cccc4ncccc34)CC2)c1` [Example I-110, 1-[2-methoxy-5-(1-methoxy-2-methylpropan-2-yl)phenyl]-N-(quinoline-5-sulfonyl)cyclopropane-1-carboxamide], the 50% effective concentration (EC50) is below 3 µM under setting [1] and below 3 µM under setting [2]. The “Maximum % activity (with co-corrector)” value (with co-corrector) is “+++ (≥350)”. Moreover, where the note is “without co-corrector”, the Emax is above 150%.
Regarding `CC(C)Oc1ncc(C2CCC2)cc1C1(C(=O)NS(=O)(=O)c2cccc3c2CCCN3)CC1` [GII-25, 1-{5-cyclobutyl-2-[(propan-2-yl)oxy]pyridin-3-yl}-N-(1,2,3,4-tetrahydroquinoline-5-sulfonyl)cyclopropane-1-carboxamide], the “Maximum % activity (with co-corrector)” value under setting [3] was “+++ (≥350)”. For the same compound, the EC50 is 3 to 10 µM under setting [4] and 3 to 10 µM under setting [6]. For the same compound, the Emax under setting [5] was above 150%.
Consider `CCOc1ccc(C(C)(C)OC)cc1C1(C(=O)NS(=O)(=O)c2cccc3nc(C)ccc23)CC1` [Example I-104, 1-[2-ethoxy-5-(2-methoxypropan-2-yl)phenyl]-N-(2-methylquinoline-5-sulfonyl)cyclopropane-1-carboxamide], for which the EC50 by setting is: under setting [1], below 3 µM; under setting [2], below 3 µM. In addition, the “Maximum % activity (with co-corrector)” value (with co-corrector) was “+++ (≥350)”. The Emax (without co-corrector) was above 150%.
Turning to `Cc1cnc(OCC2CC2)c(C2(C(=O)NS(=O)(=O)c3cccc4ncccc34)CC2)c1` [Example GI-96, 1-[2-(cyclopropylmethoxy)-5-methylpyridin-3-yl]-N-(quinoline-5-sulfonyl)cyclopropane-1-carboxamide], under setting [3], the “Maximum % activity (with co-corrector)” value was “+++ (≥350)”. Besides, the EC50 by setting is: under setting [4], below 3 µM; under setting [6], 3 to 10 µM. Moreover, the Emax under setting [5] is above 150%.
Turning to `COc1ccc(C)c(OC)c1C1(C(=O)NS(=O)(=O)c2cccc3nc(C)ccc23)CC1` [Example I-43, 1-(2,6-dimethoxy-3-methylphenyl)-N-(2-methylquinoline-5-sulfonyl)cyclopropane-1-carboxamide], the EC50 was below 3 µM under setting [1] and below 3 µM under setting [2]. Besides, where the note is “with co-corrector”, the “Maximum % activity (with co-corrector)” value is “+++ (≥350)”. Moreover, the Emax (without co-corrector) was above 150%.
Regarding `COc1ncc(C2(C(=O)NS(=O)(=O)c3cccc4ccccc34)CC2)c(OC)n1` [GII-1, 1-(2,4-dimethoxypyrimidin-5-yl)-N-(naphthalene-1-sulfonyl)cyclopropane-1-carboxamide], under setting [3], the “EC50 (with co-corrector)” value was “++^a”; the “Maximum % activity (with co-corrector)” value was “++ (≥150 and <350)”. Moreover, under setting [5], the “EC50 (without co-corrector)” value is “++^a” and the Emax is below 50%.
Take `O=C(NS(=O)(=O)c1ccccc1OC(F)(F)F)C1(c2ccc(Cl)cc2Cl)CC1` [Example III-13, 1-(2,4-dichlorophenyl)-N-[2-(trifluoromethoxy)benzene-1-sulfonyl]cyclopropane-1-carboxamide]: the EC50 under setting [1] fell in the range of 3 to 10 µM and the EC50 under setting [2] is below 3 µM. Also, under “with co-corrector”, the “Maximum % activity (with co-corrector)” value was “++ (≥150 and <350)”. Besides, under “without co-corrector”, the Emax was below 50%.
For the compound `CCc1cnc(N2CCOCC2)c(C2(C(=O)NS(=O)(=O)c3cccc4nc(C)ccc34)CC2)c1` [GII-32, 1-[5-ethyl-2-(morpholin-4-yl)pyridin-3-yl]-N-(2-methylquinoline-5-sulfonyl)cyclopropane-1-carboxamide], under setting [3], the “EC50 (with co-corrector)” value is “++^a”; the “Maximum % activity (with co-corrector)” value is “++ (≥150 and <350)”. Moreover, under setting [5], the “EC50 (without co-corrector)” value was “++^a” and the Emax was 50 to 150%.
For `CC(C)Oc1cc(C2CCC2)cnc1C1(C(=O)NS(=O)(=O)c2cccc3ncccc23)CC1` [GII-27, 1-{5-cyclobutyl-3-[(propan-2-yl)oxy]pyridin-2-yl}-N-(quinoline-5-sulfonyl)cyclopropane-1-carboxamide], the “Maximum % activity (with co-corrector)” value under setting [3] was “++ (≥150 and <350)”. Also, the EC50 was in the range of 3 to 10 µM under setting [4] and 3 to 10 µM under setting [6]. In addition, the Emax under setting [5] is 50 to 150%.
Consider `CC(=O)N1CCc2cc(S(=O)(=O)NC(=O)C3(c4cccc(Cl)c4)CC3)ccc21` [Example III-76, N-(1-acetyl-2,3-dihydro-1H-indole-5-sulfonyl)-1-(3-chlorophenyl)cyclopropane-1-carboxamide], for which the EC50 by setting is: under setting [1], above 10 µM; under setting [2], above 10 µM. The “Maximum % activity (with co-corrector)” value (with co-corrector) is reported as “+ (<150)”. The Emax (without co-corrector) was below 50%.
With `COc1ncc(C2CCC2)cc1C1(C(=O)NS(=O)(=O)c2cccc3ncc(C)n23)CC1` [II-16], the EC50 is 3 to 10 µM under setting [1] and below 3 µM under setting [2]. Also, the “Maximum % activity (with co-corrector)” value (with co-corrector) was “+++ (≥350)”. The Emax (without co-corrector) is above 150%.
`CCc1cnc(OCCOC)c(C2(C(=O)NS(=O)(=O)c3cccc4ncccc34)CC2)c1` [Example GI-112, 1-[5-ethyl-2-(2-methoxyethoxy)pyridin-3-yl]-N-(quinoline-5-sulfonyl)cyclopropane-1-carboxamide]: the “Maximum % activity (with co-corrector)” value under setting [3] is recorded as “+++ (≥350)”. The EC50 under setting [4] is below 3 µM and the EC50 under setting [6] lay within 3 to 10 µM. The Emax under setting [5] was above 150%.
Regarding `Cc1ccc2c(S(=O)(=O)NC(=O)C3(c4cc(C5CC5)cnc4N4CCCC4)CC3)cccc2n1` [Example GI-33, 1-[5-cyclopropyl-2-(pyrrolidin-1-yl)pyridin-3-yl]-N-(2-methylquinoline-5-sulfonyl)cyclopropane-1-carboxamide], the “Maximum % activity (with co-corrector)” value under setting [3] is reported as “+++ (≥350)”. Also, the EC50 runs as follows: under setting [4], below 3 µM; under setting [6], 3 to 10 µM. In addition, the Emax under setting [5] is above 150%.
Regarding `COC(=O)c1ccc(Cl)cc1S(=O)(=O)NC(=O)C1(c2ccc(Cl)cc2Cl)CC1` [Example III-66, methyl 4-chloro-2-{[l-(2,4-dichlorophenyl)cyclopropane-1-carbonyl]sulfamoyl}benzoate], the EC50 is above 10 µM under setting [1] and 3 to 10 µM under setting [2]. Also, the “Maximum % activity (with co-corrector)” value (with co-corrector) was “++ (≥150 and <350)”. Moreover, the Emax (without co-corrector) is below 50%.
As to `COc1cc(C)ccc1C1(C(=O)NS(=O)(=O)c2cccc3ncccc23)CC1` [II-63], the EC50 runs as follows: under setting [1], below 3 µM; under setting [2], below 3 µM. The “Maximum % activity (with co-corrector)” value (with co-corrector) was “+++ (≥350)”. Where the note is “without co-corrector”, the Emax is above 150%.
`COc1ncc(C2CCC2)cc1C1(C(=O)NS(=O)(=O)c2cccc3ncn(C)c23)CC1` [II-12]: the EC50 under setting [1] is 3 to 10 µM and the EC50 under setting [2] is below 3 µM. The “Maximum % activity (with co-corrector)” value (with co-corrector) is “+++ (≥350)”. Besides, under “without co-corrector”, the Emax was above 150%.
The corresponding values for `COc1cc(C2(C(=O)NS(=O)(=O)c3cccc4ncccc34)CC2)c(OCC(C)C)cn1` [Example GI-19, 1-[2-methoxy-5-(2-methylpropoxy)pyridin-4-yl]-N-(quinoline-5-sulfonyl)cyclopropane-1-carboxamide] are 3 to 10 µM, below 3 µM, “+++ (≥350)” and above 150%.
